Laboratory results reported in ChEMBL document CHEMBL1154947, “Discovery of N-(5,6-diarylpyridin-2-yl)amide derivatives as potent and selective A(2B) adenosine receptor antagonists” (Bioorg Med Chem Lett, 2010).
pKi: −log10 of the molar value.

Key:
Adenosine receptor A2a [1] = target: T1, Adenosine receptor A2a (Homo sapiens, UniProt P29274); experiment: Inhibition of [3H]ZM241385 binding to human adenosine A2A receptor expressed in human HeLa cells at 1 uM after 1 hr by scintillation proximity assay; assay type: cell-based
T1 sequence (P29274 whole entry): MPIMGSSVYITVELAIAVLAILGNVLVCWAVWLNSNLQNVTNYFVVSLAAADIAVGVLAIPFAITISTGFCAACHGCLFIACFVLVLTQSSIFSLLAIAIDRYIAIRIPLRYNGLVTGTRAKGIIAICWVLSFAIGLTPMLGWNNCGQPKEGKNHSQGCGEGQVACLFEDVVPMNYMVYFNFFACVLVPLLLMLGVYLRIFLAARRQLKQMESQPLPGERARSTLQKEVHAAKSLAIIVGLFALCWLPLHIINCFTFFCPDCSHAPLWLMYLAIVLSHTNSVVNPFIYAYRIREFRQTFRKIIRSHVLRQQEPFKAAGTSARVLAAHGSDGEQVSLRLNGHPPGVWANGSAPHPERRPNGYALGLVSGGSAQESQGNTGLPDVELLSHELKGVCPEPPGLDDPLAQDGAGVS

[2] = target: T2, Adenosine receptor A1 (Homo sapiens) (UniProt P30542); experiment: Inhibition of [3H]DPCPX binding to human adenosine A1 receptor expressed in CHO cells at 1 uM after 90 mins by filtration binding assay; assay type: cell-based
T2 sequence (whole entry): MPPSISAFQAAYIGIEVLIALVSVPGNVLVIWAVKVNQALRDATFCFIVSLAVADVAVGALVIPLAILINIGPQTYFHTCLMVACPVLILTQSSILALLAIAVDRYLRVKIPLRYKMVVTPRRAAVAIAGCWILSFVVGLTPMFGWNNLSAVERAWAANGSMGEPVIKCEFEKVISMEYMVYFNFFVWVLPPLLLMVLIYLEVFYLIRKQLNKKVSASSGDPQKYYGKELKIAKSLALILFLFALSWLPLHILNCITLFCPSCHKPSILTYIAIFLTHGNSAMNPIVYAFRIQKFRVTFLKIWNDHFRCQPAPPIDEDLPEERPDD

[3] = target: T3, Adenosine receptor A3 (Homo sapiens) (UniProt P0DMS8); experiment: Inhibition of [3H]NECA binding to human adenosine A3 receptor expressed in human HeLa cells at 1 uM after 3 hrs by filtration binding assay; assay type: cell-based
T3 sequence (whole entry): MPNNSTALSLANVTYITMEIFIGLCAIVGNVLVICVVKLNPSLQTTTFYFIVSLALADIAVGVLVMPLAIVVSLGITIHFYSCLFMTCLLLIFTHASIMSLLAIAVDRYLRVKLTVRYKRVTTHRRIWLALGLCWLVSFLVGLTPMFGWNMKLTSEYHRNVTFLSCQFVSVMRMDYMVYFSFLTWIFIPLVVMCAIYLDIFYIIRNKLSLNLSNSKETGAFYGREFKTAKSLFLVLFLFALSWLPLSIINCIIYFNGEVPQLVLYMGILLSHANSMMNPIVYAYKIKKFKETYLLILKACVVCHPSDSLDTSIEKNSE

Adenosine receptor A2b = target: T4, Adenosine receptor A2b (Homo sapiens, UniProt P29275); experiment: biochemical
T4 sequence (P29275 whole entry): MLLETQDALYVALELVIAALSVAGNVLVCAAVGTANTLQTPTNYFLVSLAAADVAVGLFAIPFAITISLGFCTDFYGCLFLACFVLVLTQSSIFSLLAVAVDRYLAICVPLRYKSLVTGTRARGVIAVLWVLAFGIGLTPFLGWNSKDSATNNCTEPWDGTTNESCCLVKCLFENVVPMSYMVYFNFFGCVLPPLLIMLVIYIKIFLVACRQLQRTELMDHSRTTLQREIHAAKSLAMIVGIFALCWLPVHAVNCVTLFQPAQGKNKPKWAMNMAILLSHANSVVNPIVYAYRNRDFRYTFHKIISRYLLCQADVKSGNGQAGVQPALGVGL
Description: Displacement of [3H]DPCPX from human adenosine A2B receptor expressed in HEK293 cells after 60 mins by filtration binding assay

[4] = target: T5, Adenosine receptor A2b (Homo sapiens) (UniProt P29275); experiment: Inhibition of [3H]DPCPX binding to human adenosine A2B receptor expressed in HEK293 cells at 1 uM after 60 mins by filtration binding assay; assay type: cell-based
T5 sequence (whole entry): T4 sequence (P29275 whole entry)

Adenosine receptor A2a [5] = target: T1, Adenosine receptor A2a; experiment: Displacement of [3H]ZM241385 from human adenosine A2A receptor expressed in human HeLa cells after 1 hr by scintillation proximity assay; assay type: cell-based
[6] = Metabolic stability in rat liver microsomes assessed as turnover at 5 uM after 30 mins in presence of NADPH; assay type: ADME, Microsome; details: read-out: Activity
[7] = Metabolic stability in human liver microsomes assessed as turnover at 5 uM after 30 mins in presence of NADPH; assay type: ADME, Microsome; details: read-out: Activity
[8] = Terminal half life in rat at 1 mg/kg, iv; assay type: ADME, organism-based; design: dose 1 mg/kg, route intravenous; details: in vivo, read-out: beta t1/2 (converted)
[9] = Cmax in rat at 1 mg/kg, iv; assay type: ADME, organism-based; design: dose 1 mg/kg, route intravenous; details: in vivo
[10] = Clearance in rat at 1 mg/kg, iv; assay type: ADME, organism-based; design: dose 1 mg/kg, route intravenous; details: in vivo
[11] = AUC (0 to infinity) in rat at 1 mg/kg, iv; assay type: ADME, organism-based; design: time infinity, dose 1 mg/kg, route intravenous; details: plasma
[12] = Volume of distribution at steady state in rat at 1 mg/kg, iv; assay type: ADME, organism-based; design: dose 1 mg/kg, route intravenous; details: in vivo, read-out: Vdss
Adenosine receptor A1 = target: T6, Adenosine receptor A1 (Homo sapiens, UniProt P30542); experiment: biochemical
T6 sequence (P30542 whole entry): T2 sequence (whole entry)
Description: Displacement of [3H]DPCPX from human adenosine A1 receptor expressed in CHO cells after 90 mins by filtration binding assay

Adenosine receptor A3 = target: T7, Adenosine receptor A3 (Homo sapiens, UniProt P0DMS8); experiment: Displacement of [3H]NECA from human adenosine A3 receptor expressed in human HeLa cells after 3 hrs by filtration binding assay; assay type: cell-based
T7 sequence (P0DMS8 whole entry): T3 sequence (whole entry)

[13] = Metabolic stability in rat liver microsomes assessed as turnover at 5 uM after 30 mins in absence of NADPH; assay type: ADME, Microsome; details: read-out: Activity
[14] = Metabolic stability in human liver microsomes assessed as turnover at 5 uM after 30 mins in absence of NADPH; assay type: ADME, Microsome; details: read-out: Activity
[15] = Tmax in rat at 10 mg/kg, po; assay type: ADME, organism-based; design: dose 10 mg/kg, route oral; details: in vivo
[16] = Oral bioavailability in rat at 10 mg/kg; assay type: ADME, organism-based; details: in vivo

Structure (SMILES)	inhibition [2]	inhibition [3]	pKi (Adenosine receptor A2b)	pKi (Adenosine receptor A2a [5])	pKi (Adenosine receptor A1)	pKi (Adenosine receptor A3)	other results
CC(=O)c1nc(NC(=O)C2CC2)ccc1-c1ccncc1	6%	2%	5.44	–	–	–	inhibition (Adenosine receptor A2a [1]): 2%
O=C(Nc1ccc(-c2ccncc2)cn1)C1CC1	8%	7%	–	–	–	–	inhibition [4]: 29%; inhibition (Adenosine receptor A2a [1]): 2%
O=C(Nc1ccc(-c2ccncc2)c(-c2ncco2)n1)C1CC1	–	22%	7.49	5.87	6.15	–	metabolised at 0.5 h, 5 µM [6]: 27%; metabolised at 0.5 h, 5 µM [7]: 14%; half-life [8]: 54 min; Cmax [9]: 761 ng/mL; clearance [10]: 31.7 mL/min/kg; AUC(0-inf) [11]: 533 ng·h/mL; Vd [12]: 1.6 L/kg
O=C(Nc1ccc(-c2ccncc2)c(-c2cocn2)n1)C1CC1	1%	12%	6.87	5.86	–	–	–
O=C(Nc1ccc(-c2ccncc2)c(-c2cncs2)n1)C1CC1	–	–	7.11	6.09	6.49	5.31	–
O=C(Nc1ccc(-c2ccncc2)c(-c2ccccc2F)n1)C1CC1	–	–	8.70	7.21	6.91	6.09	metabolised at 0.5 h, 5 µM [13]: 100%; metabolised at 0.5 h, 5 µM [14]: 86%
O=C(Nc1ccc(-c2ccncc2)c(-c2cnco2)n1)C1CC1	–	5%	7.52	6.20	6.20	–	–
O=C(Nc1ccc(-c2ccncc2F)c(-c2ccco2)n1)C1CC1	–	11%	9.00	6.82	6.43	–	metabolised at 0.5 h, 5 µM [13]: 99%; metabolised at 0.5 h, 5 µM [14]: 77%
O=C(Nc1ccc(-c2ccncc2)c(-c2cccc(F)c2)n1)C1CC1	–	–	8.70	7.24	7.85	6.15	–
O=C(Nc1ccc(-c2ccncc2)c(-c2ccc(F)cc2)n1)C1CC1	–	27%	8.40	7.41	7.46	–	–
O=C(Nc1ccc(-c2ccncc2)c(-n2cccn2)n1)C1CC1	22%	2%	7.14	5.84	–	–	–
CC(=O)Nc1ccc(-c2ccncn2)c(-c2ccco2)n1	7%	28%	7.33	–	–	–	inhibition (Adenosine receptor A2a [1]): 20%
O=C(Nc1ccc(-c2ccncc2)c(-c2ccncc2)n1)C1CC1	–	6%	7.85	6.79	6.47	–	–
c1cncc(Nc2ncc(-c3ccncn3)c(-c3ccco3)n2)c1	–	–	–	–	5.55	5.98	–
O=C(Nc1ccc(-c2ccncc2Cl)c(-c2ccco2)n1)C1CC1	–	–	8.30	6.83	6.60	5.73	–
O=C(Nc1ccc(-c2ccncc2)c(-c2cc[nH]n2)n1)C1CC1	3%	1%	6.69	–	–	–	inhibition (Adenosine receptor A2a [1]): 4%
CC(=O)Nc1ccc(-c2ccncc2)c(-c2cccc(F)c2)n1	–	–	7.52	6.54	7.24	6.33	–
O=C(Nc1ccc(-c2ccncc2)c(-c2ccccn2)n1)C1CC1	–	2%	7.33	6.06	6.03	–	metabolised at 0.5 h, 5 µM [7]: 0%; metabolised at 0.5 h, 5 µM [13]: 12%; half-life [8]: 30 min; Cmax [9]: 822 ng/mL; clearance [10]: 35 mL/min/kg; AUC(0-inf) [11]: 485 ng·h/mL; Vd [12]: 1 L/kg
O=C(Nc1ccc(Br)c(-c2ccco2)n1)C1CC1	–	–	7.55	7.46	6.55	6.21	–
N#Cc1ccc(NC(=O)C2CC2)nc1-c1ccco1	–	–	7.39	7.92	6.54	6.49	–
O=C(Nc1ccc(-c2ccncc2)c(-c2ccncn2)n1)C1CC1	3%	3%	6.68	–	–	–	inhibition (Adenosine receptor A2a [1]): 9%
O=C(Nc1ccc(-c2ccncc2)c(Cl)n1)C1CC1	5%	14%	6.42	–	–	–	inhibition (Adenosine receptor A2a [1]): 7%
O=C(Nc1ccc(-c2ccncc2)c(-c2ccco2)n1)C1CC1	–	–	9.00	7.52	7.09	5.87	–
O=C(Nc1ccc(C2N=NN=N2)c(-c2ccco2)n1)C1CC1	1%	8%	–	5.79	–	–	inhibition [4]: 23%
O=C(Nc1ccc(-c2ccncc2)c(-c2cccnc2)n1)C1CC1	21%	10%	7.48	5.83	–	–	–
CC(=O)Nc1ncc(-c2ccncn2)c(-c2ccco2)n1	2%	2%	6.42	–	–	–	inhibition (Adenosine receptor A2a [1]): 10%
O=C(Nc1ccc(-c2ccncc2)c(-c2nccs2)n1)C1CC1	–	11%	7.38	6.52	6.04	–	–
Cc1ccc(-c2nc(NC(=O)C3CC3)ccc2-c2ccncc2)o1	–	–	8.30	7.96	7.60	6.72	–
CC(=O)Nc1ccc(-c2ccncc2)c(-c2ccco2)n1	–	–	8.15	6.68	6.45	6.48	–
O=C(Nc1ccc(-c2ccncn2)c(-c2ccco2)n1)C1CC1	–	–	8.40	6.62	6.03	5.43	metabolised at 0.5 h, 5 µM [13]: 27%; half-life [8]: 30 min; Cmax [9]: 538 ng/mL; clearance [10]: 63.3 mL/min/kg; AUC(0-inf) [11]: 267 ng·h/mL; Vd [12]: 1.6 L/kg; Tmax [15]: 18 min; bioavailability [16]: 39%
